Assay results taken from PMC3723632, “A Multi-targeted Drug Candidate with Dual Anti-HIV and Anti-HSV Activity” (PLoS Pathogens, 2013).
Converted amounts (≈) assume the structure as drawn. Like-named read-outs stand apart in the source and are kept apart here.

Key:
HSV-2 (G) [1] = assay: HSV-2 replication in human ex vivo tonsillar (lymphoid) tissue, viral DNA; assay type: cell-based
Text: Figure 5 Suppression of HSV-2 in infected human ex vivo tonsillar tissue by adefovir and PMEO-DAPym. Blocks of human tonsillar tissue were inoculated ex vivo with HSV-2 (G) and treated or not with adefovir or PMEO-DAPym. We monitored HSV-2 (G) replication by measuring viral DNA in culture media at different times throughout the culture period. Presented are means ± SEM of cumulative HSV-2 (G) replication in tissues from two to six donors. For each donor, data represent pooled viral release from 27 tissue blocks.
Figure 7 Suppression of HSV-2 in single-infected and HIV-1 co-infected human ex vivo tonsillar tissue by adefovir and PMEO-DAPym. Panels A and B: Blocks of human tonsillar tissue from five different donors were co-inoculated ex vivo with HSV-2 (G) and HIV-1 (LAI) and treated or not with adefovir or PMEO-DAPym (1 µg/ml). For tissue from each donor, we monitored replication of both viruses by evaluating their accumulation in the culture media bathing 27 tissue blocks at different times throughout the culture. We evaluated HIV-1 replication by measuring p24gag and HSV-2 (G) replication by measuring HSV-2 viral DNA. Panel A: Presented are kinetics of HSV-2 (G) and HIV-1 (LAI) replication (insert). Each point represents the mean ± SEM of viral replication in tissues from five donors. Panel B: Presented are means ± SEM of cumulative HSV-2 (G) and HIV-1 (LAI) replication (insert).
Human tonsillar tissues were obtained from patients undergoing routine tonsillectomy at the Children's National Medical Center (Washington, DC) under IRB-approved protocol. Cervical tissues were obtained through the National Disease Research Interchange (NDRI, Philadelphia, PA). Tissues were dissected into blocks of about 2×2×2 mm and placed onto collagen sponge gels in culture medium at the air-liquid interface as described earlier. For tonsillar tissue for each experimental condition, 27 tissue blocks (9 blocks/well filled with 3 ml of medium) were inoculated with HSV-1 (strain F) or HSV-2 (strains G and MS). In coinfection experiments, tissue blocks were sequentially infected with HSV-2 (G) and HIV-1 (IIIB) (obtained from the Rush University Virology Quality Assurance Laboratory, Chicago, IL). Drugs (adefovir and PMEO-DAPym) were added to the culture medium 12 h prior to viral infection and replenished at each culture medium change.
For cervico-vaginal tissue, 16 blocks were infected by immersion in HSV-2G-containing medium and maintained on the gelfoam rafts. Adefovir was added at the time of infection and replenished at each culture medium change. HSV replication was evaluated from the release of viral DNA into the culture medium as measured with quantitative real-time PCR [18]. We evaluated HIV-1 replication from the release of p24 capsid antigen using a bead-based assay.

HSV-2 (G) [2] = assay: HSV-2 infection of primary monocyte/macrophage (M/M) cultures; assay type: cell-based
Experimental: We obtained human PBMC from the blood of healthy seronegative donors using Ficoll–Hypaque density gradient centrifugation. The PBMC were resuspended in RPMI 1640 medium supplemented with 20% heat-inactivated serum and then seeded into 48-well plates (1.8×10^6 cells/well). M/M were separated by adherence onto plastic. After 5 days, non-adherent cells were carefully removed by repeated gentle washings with warm medium, and adherent M/M were cultured for an additional 3 days to mature and to form a monolayer. M/M were estimated to be 10^5 cells/well at the time of infection. […]. Similarly, macrophage cultures were treated with the same concentrations of adefovir and tenofovir. Macrophage cultures were then infected with HSV-2 (G) (100 TCID50) in the presence of the compounds. After 2 h of adsorption, the cultures were extensively washed to remove any residual virus particles. Fresh complete medium and compounds, at the established concentrations, were then added to the cultures. Appropriate positive (infected but not treated) and mock-infected negative (uninfected and untreated) M/M controls were run for each experiment as well. All assays were performed in triplicate. […] We determined the amount of infectious virus in the supernatants 5–6 days after infection using the cytopathic effect assay. Tenfold serially diluted supernatants were added to confluent monolayers of Vero cells in 96-well plates (100 µl/well, 6 parallel wells). […] The titers of virus produced were calculated according to the Reed and Muench method and expressed as 50% tissue culture infective dose per mL (TCID50/mL).

HIV-2(ROD) = assay: Anti-HIV-2 activity in CD4+ T-lymphocyte CEM cell cultures; assay type: cell-based; details: Human immunodeficiency virus 2, CCRF-CEM; HIV-2(ROD), CEM, virus-induced cytopathicity; read-out: EC50
Text: (§1) Human CD4 ^+ T-lymphocyte CEM cell cultures were inoculated with HIV-1 and HIV-2 and exposed to adefovir, tenofovir, or PMEO-DAPym. […]

HIV-1(IIIB) = assay: Anti-HIV-1 activity in CD4+ T-lymphocyte CEM cell cultures; assay type: cell-based; details: Human immunodeficiency virus 1, CCRF-CEM, virus-induced cytopathicity
Text: as §1

HSV-2 (G strain) = assay: Pre-treatment of PHK cell cultures, HSV-2 infection (CPE)
Experimental: (§2) The HSV-induced cytopathic effect (CPE) was evaluated in HSV-infected HEL and PHK cultures as described [44], [48].

HSV-1 (KOS strain) = assay: Pre-treatment of PHK cell cultures, HSV-1 infection (CPE)
Experimental: as §2

Nc1nc2c(ncn2COCCO)c(=O)[nH]1 [Acyclovir, 9-(2-hydroxyethyloxymethyl)guanine]
inhibition at 0.3 µg/mL (HSV-2 (G) [1]; Human alphaherpesvirus 2, human lymphoid tissue ex vivo, 0.3 µg/mL, read-out: Inhibition of viral replication (% to control)): 99.9% | inhibition at 3 µg/mL (HSV-2 (G) [1]; Human alphaherpesvirus 2, human lymphoid tissue ex vivo, 3 µg/mL, read-out: Inhibition of viral replication (% to control)): > 99% | HSV-2 DNA copies (HSV-2 (G) [1]; human lymphoid tissue ex vivo, 0.3 µg/mL): 1.69 e+5 copies | HSV-2 DNA copies (HSV-2 (G) [1]; human lymphoid tissue ex vivo, 3 µg/mL): 2.83 e+4 copies | Inhibition of viral replication (% to control) (HSV-2 (G) [1]; human lymphoid tissue ex vivo, 3 µg/mL, listed as ACV): 99.98% | Cytopathicity (CPE) on macrophages 6 days after infection % CPE (HSV-2 (G) [2]; 0.000025 µg/ml): 75% | Virus production by HSV2-infected macrophages 6 days after infection (CPE reduction) (HSV-2 (G) [2]; 0.000025 µg/ml): 1.3×10^4 TCID50/ml | Cytopathicity (CPE) on macrophages 6 days after infection % CPE (HSV-2 (G) [2]; 0.000128 µg/ml): 40% | Virus production by HSV2-infected macrophages 6 days after infection (CPE reduction) (HSV-2 (G) [2]; 0.000128 µg/ml): 7.2×10^3 TCID50/ml | Cytopathicity (CPE) on macrophages 6 days after infection % CPE (HSV-2 (G) [2]; 0.00064 µg/ml): 10% | Virus production by HSV2-infected macrophages 6 days after infection (CPE reduction) (HSV-2 (G) [2]; 0.00064 µg/ml): 3.5×10^2 TCID50/ml | Virus production by HSV2-infected macrophages 6 days after infection (CPE reduction) (HSV-2 (G) [2]; 0.003 µg/ml): No virus | Virus production by HSV2-infected macrophages 6 days after infection (CPE reduction) (HSV-2 (G) [2]; 0.016 µg/ml): No virus | Virus production by HSV2-infected macrophages 6 days after infection (CPE reduction) (HSV-2 (G) [2]; 0.08 µg/ml): No virus | inhibition at 25 pg/mL (HSV-2 (G) [2]; Human alphaherpesvirus 2, 144 h, 0.000025 µg/ml, M/M, day 6, read-out: Inhibition of viral replication (% to control)): 7.2% | inhibition at 0.000128 µg/mL (HSV-2 (G) [2]; Human alphaherpesvirus 2, 144 h, 0.000128 µg/ml, M/M, day 6, read-out: Inhibition of viral replication (% to control)): 49% | inhibition at 0.00064 µg/mL (HSV-2 (G) [2]; Human alphaherpesvirus 2, 144 h, 0.00064 µg/ml, M/M, day 6, read-out: Inhibition of viral replication (% to control)): 97% | inhibition at 0.003 µg/mL (HSV-2 (G) [2]; Human alphaherpesvirus 2, 144 h, 0.003 µg/ml, M/M, day 6, read-out: Inhibition of viral replication (% to control)): 100% | inhibition at 0.016 µg/mL (HSV-2 (G) [2]; Human alphaherpesvirus 2, 144 h, 0.016 µg/ml, M/M, day 6, read-out: Inhibition of viral replication (% to control)): 100% | inhibition at 0.08 µg/mL (HSV-2 (G) [2]; Human alphaherpesvirus 2, 144 h, 0.08 µg/ml, M/M, day 6, read-out: Inhibition of viral replication (% to control)): 100% | EC50 (HSV-2 (G) [2]; Human alphaherpesvirus 2, HSV-2 (G), human monocyte/macrophages): 0.13 ± 0.015 µg/mL (≈ 0.577 µM) | EC50 (HIV-2(ROD)): > 100 µg/mL | EC50 (HIV-1(IIIB)): > 100 µg/mL | EC50 (HSV-2 (G strain); Human alphaherpesvirus 2, read-out: 50% effective concentration, PHK, HSV-2 G, +2 h to 72 h (control, drug present whole incubation)): 0.41 ± 0.13 µg/mL (≈ 1.82 µM) | EC50 (HSV-2 (G strain); Human alphaherpesvirus 2, read-out: 50% effective concentration, PHK, HSV-2 G, pretreatment −2.5 h to 0 h): 50 µg/mL (≈ 222 µM) | EC50 (HSV-2 (G strain); Human alphaherpesvirus 2, read-out: 50% effective concentration, PHK, HSV-2 G, pretreatment −6 h to 0 h): > 50 µg/mL | EC50 (HSV-2 (G strain); Human alphaherpesvirus 2, read-out: 50% effective concentration, PHK, HSV-2 G, pretreatment −18 h to 0 h): > 50 µg/mL | EC50 (HSV-1 (KOS strain); Human alphaherpesvirus 1, read-out: 50% effective concentration, PHK, HSV-1 KOS, +2 h to 72 h (control, drug present whole incubation)): 0.33 ± 0.25 µg/mL (≈ 1.47 µM) | EC50 (HSV-1 (KOS strain); Human alphaherpesvirus 1, read-out: 50% effective concentration, PHK, HSV-1 KOS, pretreatment −2.5 h to 0 h): > 50 µg/mL | EC50 (HSV-1 (KOS strain); Human alphaherpesvirus 1, read-out: 50% effective concentration, PHK, HSV-1 KOS, pretreatment −6 h to 0 h): > 50 µg/mL | EC50 (HSV-1 (KOS strain); Human alphaherpesvirus 1, read-out: 50% effective concentration, PHK, HSV-1 KOS, pretreatment −18 h to 0 h): > 50 µg/mL
